Measured values reported in US20250143305A1, “PYRAZOLE COMPOUND AND PEST CONTROL AGENT CONTAINING THE SAME AS ACTIVE INGREDIENT” (MITSUI CHEMICALS CROP & LIFE SOLUTIONS, INC., priority 2022, published 2025).

Legend:
Assay type in all cases: in vivo
Myzus persicae [1] = test: Insecticidal test against Myzus persicae, spray on radish leaves; conditions: 120 h, 20% acetone aqueous solution sprayed on radish leaves, 25 young larvae, 25° C., after 5 days, read-out: mortality rate
Procedure: (§1) Insecticidal Test Against Myzus persicae
2.5 ml of a 20% acetone aqueous solution prepared to have a predetermined concentration of the test compound was sprayed on the leaves of radish (Raphanus sativus) in which the roots retained water and 25 young larvae were parasitized. After air drying, it was allowed to stand in a thermostatic chamber at 25° C., and the number of living insects and the number of dead insects were examined after 5 days.

Nilaparvata lugens [2] = test: Insecticidal test against Nilaparvata lugens, spray on rice seedling; conditions: 144 h, acetone solution sprayed on rice seedling, 10 young larvae, 25° C., after 6 days, read-out: mortality rate
Procedure: (§2) Insecticidal Test Against Nilaparvata lugens
(§3) 2.5 ml of an acetone solution prepared to have a predetermined concentration of the test compound was sprayed on a rice (Oryza sativa) seedling, and the rice seedling was transferred to a glass tube in which water was retained. After air drying, 10 young larvae were released into the glass tube, and the glass tube was covered with a sponge stopper. The glass tube was allowed to stand in a thermostatic chamber at 25° C., and the numbers of living insects and dead insects were examined after 6 days.

Sogatella furcifera = test: Insecticidal test against Sogatella furcifera, spray on rice seedling; conditions: 144 h, acetone solution sprayed on rice seedling, 10 young larvae, 25° C., after 6 days, read-out: mortality rate
Procedure: Insecticidal Test Against Sogatella furcifera
as §3

Myzus persicae [3] = test: Insecticidal test against Myzus persicae, root part of radish seedling immersed; conditions: 120 h, 2% acetone aqueous solution, 25 young larvae, 25° C., after 5 days, read-out: mortality rate
Procedure: as §1
12.5 ml of a 2% acetone aqueous solution in which the test compound was adjusted to a predetermined concentration was placed in a container, and a root part of a young radish (Raphanus sativus) seedling that was fixed with a sponge and parasitized with 25 young larvae was immersed. The container was allowed to stand in a thermostatic chamber at 25° C., and the numbers of living insects and dead insects were examined after 5 days.

Nilaparvata lugens [4] = test: Insecticidal test against Nilaparvata lugens, root part of rice seedling immersed; conditions: 144 h, 2% acetone aqueous solution, 10 young larvae, 25° C., after 6 days, read-out: mortality rate
Procedure: as §2
12.5 ml of a 2% acetone aqueous solution in which the test compound was adjusted to a predetermined concentration was placed in a container, and a root part of a rice (Oryza sativa) seedling fixed with a sponge and a plastic cylinder was immersed. 10 young larvae were released into the container, and the container was covered with a plastic lid. The container was allowed to stand in a thermostatic chamber at 25° C., and the numbers of living insects and dead insects were examined after 6 days.

Spodoptera litura = test: Insecticidal test against Spodopteta litura, cabbage leaf pieces immersed; conditions: 144 h, 1,000 ppm, cabbage leaf pieces immersed 30 seconds, five 2nd instar larvae, 25° C., after 6 days, read-out: mortality rate
Procedure: Insecticidal Test Against Spodopteta litura
Cabbage (Brassicae oleracea) leaf pieces were immersed in a chemical solution prepared to have a predetermined concentration of the test compound for 30 seconds, air-dried, then placed in a 7 cm polyethylene cup with a filter paper laid thereon, and five 2nd instar larvae of Spodoptera litura were released. The container was allowed to stand in a thermostatic chamber at 25° C., and the numbers of living insects and dead insects were examined after 6 days.

SMILES | mortality at 100 ppm (Myzus persicae [1]) | mortality at 100 ppm (Nilaparvata lugens [2]) | mortality at 100 ppm (Sogatella furcifera) | mortality at 100 ppm (Myzus persicae [3]) | mortality at 100 ppm (Nilaparvata lugens [4]) | mortality at 1000 ppm (Spodoptera litura)
CCS(=O)(=O)c1c(-c2cn3cnc(C(F)(F)F)cc3n2)nn(C)c1NC(=O)C(F)(F)F [compound 1, N-(4-(ethylsulfonyl)-1-methyl-3-(7-(trifluoromethyl)imidazo[1,2-c]pyrimidin-2-yl)-1H-pyrazol-5-yl)-2,2,2-trifluoroacetamide] | ≥ 50% | ≥ 50% | ≥ 50% | ≥ 50% | ≥ 50% | –
CCSc1c(-c2nc3cc(C(F)(F)F)ncn3n2)nn(C)c1NC(=O)OC(C)(C)C [compound 4, t-butyl (4-(ethylthio)-1-methyl-3-(7-(trifluoromethyl)-[1,2,4]triazolo[1,5-c]pyrimidin-2-yl)-1H-pyrazol-5-yl)carbamate] | – | ≥ 50% | – | – | – | –
CCSc1c(-c2nc3cc(C(F)(F)F)ncn3n2)nn(C)c1N [compound 5, 4-(ethylthio)-1-methyl-3-(7-(trifluoromethyl)-[1,2,4]triazolo[1,5-c]pyrimidin-2-yl)-1H-pyrazol-5-amine] | ≥ 50% | – | – | – | – | –
CCSc1c(-c2nc3cc(C(F)(F)F)ncn3n2)nn(C)c1NC(C)=O [compound 10, N-(4-(ethylthio)-1-methyl-3-(7-(trifluoromethyl)-[1,2,4]triazolo[1,5-c]pyrimidin-2-yl)-1H-pyrazol-5-yl)acetamide] | – | ≥ 50% | – | – | – | –
CCS(=O)(=O)c1c(-c2nc3cc(C(F)(F)F)ncn3n2)nn(C)c1NC(C)=O [compound 11, N-(4-(Ethylsulfonyl)-1-methyl-3-(7-(trifluoromethyl)-[1,2,4]triazolo[1,5-c]pyrimidin-2-yl)-1H-pyrazol-5-yl)acetamide] | ≥ 50% | ≥ 50% | ≥ 50% | – | ≥ 50% | –
CCSc1c(-c2cn3cnc(C(F)(F)F)cc3n2)nn(C)c1NC(=O)OC(C)(C)C [compound 26, t-butyl(4-(ethylthio)-1-methyl-3-(7-(trifluoromethyl)imidazo[1,2-c]pyrimidin-2-yl)-1H-pyrazol-5-yl)carbamate] | – | – | ≥ 50% | – | – | –
CCSc1c(-c2cn3cnc(C(F)(F)F)cc3n2)nn(C)c1NC(=O)C(F)(F)F [compound 27] | ≥ 50% | ≥ 50% | ≥ 50% | – | – | –
CCSc1c(-c2cn3cnc(C(F)(F)F)cc3n2)nn(C)c1N(C)C(=O)OC(C)(C)C [compound 28, t-butyl(4-(ethylthio)-1-methyl-3-(7-(trifluoromethyl)imidazo[1,2-c]pyrimidin-2-yl)-1H-pyrazol-5-yl)(methyl)carbamate] | – | ≥ 50% | – | – | – | –
CCSc1c(-c2cn3cnc(C(F)(F)F)cc3n2)nn(C)c1NC [compound 29, 4-(ethylthio)-N,1-dimethyl-3-(7-(trifluoromethyl)imidazo[1,2-c]pyrimidin-2-yl)-1H-pyrazol-5-amine] | – | ≥ 50% | ≥ 50% | – | – | –
CCSc1c(-c2cn3cnc(C(F)(F)F)cc3n2)nn(C)c1N(C)C(=O)C(F)(F)F [compound 30, N-(4-(ethylthio)-1-methyl-3-(7-(trifluoromethyl)imidazo[1,2-c]pyrimidin-2-yl)-1H-pyrazol-5-yl)-2,2,2-trifluoro-N-methylacetamide] | – | – | ≥ 50% | – | ≥ 50% | –
CCSc1c(-c2cn3cnc(C(F)(F)F)cc3n2)nn(C)c1N [compound 39, 4-(ethylthio)-1-methyl-3-(7-(trifluoromethyl)imidazo[1,2-c]pyrimidin-2-yl)-1H-pyrazol-5-amine] | ≥ 50% | ≥ 50% | ≥ 50% | – | ≥ 50% | –
CCS(=O)(=O)c1c(-c2nc3cc(C(F)(F)F)ncn3c2Cl)nn(C)c1NC(=O)C(F)(F)F [compound 53, N-(3-(3-chloro-7-(trifluoromethyl)imidazo[1,2-c]pyrimidin-2-yl)-4-(ethylsulfonyl)-1-methyl-1H-pyrazol-5-yl)-2,2,2-trifluoroacetamide] | ≥ 50% | ≥ 50% | ≥ 50% | – | ≥ 50% | –
CCS(=O)(=O)c1c(-c2nc3cc(C(F)(F)F)ncn3c2Br)nn(C)c1NC(=O)C(F)(F)F [compound 54, N-(3-(3-bromo-7-(trifluoromethyl)imidazo[1,2-c]pyrimidin-2-yl)-4-(ethylsulfonyl)-1-methyl-1H-pyrazol-5-yl)-2,2,2-trifluoroacetamide] | ≥ 50% | ≥ 50% | ≥ 50% | – | ≥ 50% | –
CCSc1c(-c2cn3cnc(C(F)(F)F)cc3n2)nn(C)c1NC(=O)c1ccccn1 [compound 84, N-(4-(ethylthio)-1-methyl-3-(7-(trifluoromethyl)imidazo[1,2-c]pyrimidin-2-yl)-1H-pyrazol-5-yl)picolinamide] | – | ≥ 50% | – | – | – | ≥ 50%
CCS(=O)(=O)c1c(-c2cn3cnc(C(F)(F)F)cc3n2)nn(C)c1NC(=O)c1ccccn1 [compound 86, N-(4-(ethylsulfonyl)-1-methyl-3-(7-(trifluoromethyl)imidazo[1,2-c]pyrimidin-2-yl)-1H-pyrazol-5-yl)picolinamide] | ≥ 50% | ≥ 50% | – | – | – | ≥ 50%
CCS(=O)(=O)c1c(-c2cn3cnc(C(F)(F)F)cc3n2)nn(C)c1N [compound 100, 4-(ethylsulfonyl)-1-methyl-3-(7-(trifluoromethyl)imidazo[1,2-c]pyrimidin-2-yl)-1H-pyrazol-5-amine] | ≥ 50% | ≥ 50% | ≥ 50% | – | ≥ 50% | –
